According to the CheMixHub viscosity set:

Assay: xn = mol fraction of the nth substance listed

c1ccc2ncccc2c1 + Oc1ccccc1
Details | viscosity [mPa·s]
293.25 K, 101 kPa, x2 = 0.101 | 4.595
293.25 K, 101 kPa, x2 = 0.1895 | 5.725
293.25 K, 101 kPa, x2 = 0.2876 | 7.85
293.25 K, 101 kPa, x2 = 0.3677 | 10.58
293.25 K, 101 kPa, x2 = 0.4518 | 15.03
293.25 K, 101 kPa, x2 = 0.5297 | 20.31
293.25 K, 101 kPa, x2 = 0.6094 | 24.52
293.25 K, 101 kPa, x2 = 0.6758 | 25.29
293.25 K, 101 kPa, x2 = 0.7465 | 23.27
293.25 K, 101 kPa, x2 = 0.8203 | 19.41
293.25 K, 101 kPa, x2 = 0.8731 | 16.6
293.25 K, 101 kPa, x2 = 0.9409 | 13.37
298 K, 101.3 kPa, x1 = 0.1054 | 12.7
298 K, 101.3 kPa, x1 = 0.1999 | 17.29
298 K, 101.3 kPa, x1 = 0.3001 | 20.99
298 K, 101.3 kPa, x1 = 0.4004 | 19.77
298 K, 101.3 kPa, x1 = 0.4996 | 14.31
298 K, 101.3 kPa, x1 = 0.5998 | 10.23
298 K, 101.3 kPa, x1 = 0.6997 | 7.295
298 K, 101.3 kPa, x1 = 0.7997 | 5.58
298 K, 101.3 kPa, x1 = 0.9023 | 4.054
303 K, 101.3 kPa, x1 = 0.1054 | 10.2
303 K, 101.3 kPa, x1 = 0.1999 | 13.09
303 K, 101.3 kPa, x1 = 0.3001 | 15.72
303 K, 101.3 kPa, x1 = 0.4004 | 14.98
303 K, 101.3 kPa, x1 = 0.4996 | 11.03
303 K, 101.3 kPa, x1 = 0.5998 | 8.24
303 K, 101.3 kPa, x1 = 0.6997 | 6.11
303 K, 101.3 kPa, x1 = 0.7997 | 4.797
303 K, 101.3 kPa, x1 = 0.9023 | 3.537
303.05 K, 101 kPa, x2 = 0.104 | 3.645
303.05 K, 101 kPa, x2 = 0.194 | 4.495
303.05 K, 101 kPa, x2 = 0.2786 | 5.605
303.05 K, 101 kPa, x2 = 0.3683 | 7.425
303.05 K, 101 kPa, x2 = 0.4478 | 9.65
303.05 K, 101 kPa, x2 = 0.5251 | 12.21
303.05 K, 101 kPa, x2 = 0.6009 | 14.36
303.05 K, 101 kPa, x2 = 0.672 | 14.8
303.05 K, 101 kPa, x2 = 0.744 | 13.44
303.05 K, 101 kPa, x2 = 0.8109 | 11.77
303.05 K, 101 kPa, x2 = 0.8741 | 10.1
303.05 K, 101 kPa, x2 = 0.9388 | 8.44
308 K, 101.3 kPa, x1 = 0.1054 | 8.195
308 K, 101.3 kPa, x1 = 0.1999 | 10.47
308 K, 101.3 kPa, x1 = 0.3001 | 12.4
308 K, 101.3 kPa, x1 = 0.4004 | 11.87
308 K, 101.3 kPa, x1 = 0.4996 | 8.92
308 K, 101.3 kPa, x1 = 0.5998 | 6.902
308 K, 101.3 kPa, x1 = 0.6997 | 5.266
308 K, 101.3 kPa, x1 = 0.7997 | 4.143
308 K, 101.3 kPa, x1 = 0.9023 | 3.095
313 K, 101.3 kPa, x1 = 0.1054 | 6.728
313 K, 101.3 kPa, x1 = 0.1999 | 8.655
313 K, 101.3 kPa, x1 = 0.3001 | 10.08
313 K, 101.3 kPa, x1 = 0.4004 | 9.694
313 K, 101.3 kPa, x1 = 0.4996 | 7.31
313 K, 101.3 kPa, x1 = 0.5998 | 5.796
313 K, 101.3 kPa, x1 = 0.6997 | 4.553
313 K, 101.3 kPa, x1 = 0.7997 | 3.608
313 K, 101.3 kPa, x1 = 0.9023 | 2.718
313.15 K, 101 kPa, x2 = 0.104 | 2.885
313.15 K, 101 kPa, x2 = 0.194 | 3.455
313.15 K, 101 kPa, x2 = 0.2786 | 4.195
313.15 K, 101 kPa, x2 = 0.3683 | 5.335
313.15 K, 101 kPa, x2 = 0.4478 | 6.6
313.15 K, 101 kPa, x2 = 0.5251 | 7.95
313.15 K, 101 kPa, x2 = 0.6009 | 8.87
313.15 K, 101 kPa, x2 = 0.672 | 9.04
313.15 K, 101 kPa, x2 = 0.744 | 8.39
313.15 K, 101 kPa, x2 = 0.8109 | 7.48
313.15 K, 101 kPa, x2 = 0.8741 | 6.56
313.15 K, 101 kPa, x2 = 0.9388 | 5.525
318 K, 101.3 kPa, x1 = 0.1054 | 5.655
318 K, 101.3 kPa, x1 = 0.1999 | 7.159
318 K, 101.3 kPa, x1 = 0.3001 | 8.328
318 K, 101.3 kPa, x1 = 0.4004 | 8.054
318 K, 101.3 kPa, x1 = 0.4996 | 5.886
318 K, 101.3 kPa, x1 = 0.5998 | 4.902
318 K, 101.3 kPa, x1 = 0.6997 | 3.996
318 K, 101.3 kPa, x1 = 0.7997 | 3.172
318 K, 101.3 kPa, x1 = 0.9023 | 2.416
